# Reference: patent US12453726B2, “Methods of using factor B inhibitors” (priority 2020, dated 2025)
# Counter-ions that a name gives are not always drawn.
# What was measured:
# [1] = system: PNH patients with active hemolysis despite treatment with eculizumab; experiment: Phase 2 study CLNP023X2201 interim analysis: LNP023 hydrochloride add-on to eculizumab in PNH patients with active hemolysis; assay type: in vivo, human
# Experimental: (§1) The dose of 200 mg LNP023 hydrochloride b.i.d. as continuous treatment has been selected for this Phase 3 study primarily based on the available efficacy and safety data obtained at the time of interim analyses from the two ongoing Phase 2 PNH studies (ClinicalTrials.gov Identifier: NCT03439839 and NCT03896152) and is supported by PKPD modeling results.
# In the CLNP023X2201 study in patients with active hemolysis despite treatment with eculizumab, LNP023 hydrochloride at a dose of 200 mg b.i.d. was administered to 10 PNH participants (cohort 1) and at a dose of 50 mg b.i.d. to 6 PNH participants (cohort 2). An interim analysis (IA) was conducted after 10 participants (cohort 1) completed at least 12 weeks of treatment with LNP023 hydrochloride 200 mg b.i.d. add-on treatment to eculizumab.
# (§2) The hematological response participants achieved with LNP023 hydrochloride 200 mg b.i.d. add-on therapy was maintained with LNP023 hydrochloride monotherapy during the extension period (at the time of the IA) when eculizumab treatment was discontinued in 5/10 participants who continued with LNP023 hydrochloride monotherapy. Following the IA, two additional participants discontinued eculizumab treatment.
# [2] = system: anti-C5 antibody treatment naive PNH patients; experiment: Phase 2 study interim analysis: LNP023 hydrochloride monotherapy in anti-C5 antibody treatment naive PNH patients; assay type: in vivo, human
# Experimental: as §1
# In the Phase 2 study (NCT03439839) in anti-C5 antibody treatment naive patients, participants received LNP023 hydrochloride monotherapy with sequential dose increments at Week 4 from LNP023 hydrochloride 25 mg b.i.d. to 100 mg b.i.d (sequence 1) or LNP023 hydrochloride 50 mg b.i.d. to 200 mg b.i.d. (sequence 2). An IA was conducted after 8 patients were randomized and 7 patients completed Week 8 visit assessments.
# as §2
# [3] = system: patients with IgA nephropathy; experiment: Study CLNP023X2203, safety and tolerability; assay type: in vivo, human; details: 200 mg b.i.d.
# [4] = system: patients with C3 glomerulopathy; experiment: Study CLNP023X2202, safety and tolerability; assay type: in vivo, human; details: 200 mg b.i.d.
# alternative pathway = experiment: Exposure-response model from First In Human study data (Wieslab assay); details: dose of about 200 mg b.i.d., in >70% of subjects; model built on healthy volunteer data
# Experimental: The exposure-response model developed with data from the First In Human (FIH) study with LNP023 hydrochloride in healthy volunteers predicts that a dose of about 200 mg b.i.d. would be needed to achieve >90% inhibition of the alternative pathway (Wieslab assay) in >70% of subjects. Given the risk of hemolysis and breakthroughs in cases of insufficient inhibition of complement activity, full inhibition is desired and modelling results provide additional support for the choice of the dose of 200 mg b.i.d. for PNH.
# [5] = 200 mg b.i.d. added to eculizumab
# [6] = 200 mg b.i.d. as add-on to eculizumab, cohort 1, interim analysis
# [7] = 200 mg b.i.d., PNH participants
smiles,measurement,setting,value
"CCO[C@H]1CCN(Cc2c(OC)cc(C)c3[nH]ccc23)[C@H](c2ccc(C(=O)O)cc2)C1 [LNP023 hydrochloride, 4-((2S,4S)-(4-ethoxy-1-((5-methoxy-7-methyl-1H-indol-4-yl)methyl)piperidin-2-yl))benzoic acid hydrochloride]",C3 deposition,[1]; [5],fully reversed
same,Fragment Bb (target engagement),[1]; [5],profound and sustained reduction
same,inhibition of the complement alternative pathway,[1]; [5],sustained inhibition
same,survival of PNH red blood cells,[1]; [5],prolonged
same,bilirubin (control of EVH),[1]; [6],reduction
same,haptoglobin (control of EVH),[1]; [6],increase
same,hemoglobin in the absence of red blood cell transfusions,[1]; [6],normalization of hemoglobin in the majority of patients
same,reticulocytes (control of EVH),[1]; [6],reduction
same,control of IVH demonstrated by LDH,"[1]; 200 mg b.i.d. as add-on to eculizumab, cohort 1, interim analysis after at least 12 weeks",LDH reduction
same,hematological response during the extension period after eculizumab was discontinued,"[1]; 200 mg b.i.d. monotherapy, 5/10 participants who discontinued eculizumab",maintained
same,safety and tolerability,[1]; [7],safe and well tolerated
same,response at 50 mg b.i.d.,"[1]; cohort 2, 50 mg b.i.d., preliminary, three participants required up-titration to 200 mg b.i.d.",suboptimal response
same,safety and tolerability,[2]; [7],safe and well tolerated
same,bilirubin (extravascular hemolysis),[2]; monotherapy,decrease
same,haptoglobin (extravascular hemolysis),[2]; monotherapy,increase
same,reticulocytes (extravascular hemolysis),[2]; monotherapy,decrease
same,transfusion-free hemoglobin,"[2]; monotherapy, dose levels ≥25 mg b.i.d.",early transfusion-free hemoglobin increase in the majority of participants
same,LDH reduction from baseline,"[2]; monotherapy, dose levels ≥25 mg b.i.d., all participants",more than 60%
same,safety and tolerability,[3],safe and well tolerated
same,safety and tolerability,[4],safe and well tolerated
same,predicted inhibition of the alternative pathway (Wieslab assay),alternative pathway,> 90%
